Assay results from PubChem BioAssay (NCI).
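Grown in 96-well plates, cells were treated for 48 hours with each compound at five concentrations. Insufficient inhibition: endpoint recorded as highest concentration tested. TGI: total growth inhibition.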

Columns and labels:
Assay in all cases: NCI tumour cell line growth inhibition, 48 h
XF 498 CNS = test system: XF 498 CNS
HT29 colon = test system: HT29 colon
SN12K1 renal = test system: SN12K1 renal
UO-31 renal = test system: UO-31 renal
HOP-18 NSCLC = test system: HOP-18 NSCLC
EKVX NSCLC = test system: EKVX NSCLC
A549 NSCLC = test system: A549 NSCLC
SNB-19 CNS = test system: SNB-19 CNS
DMS 273 small cell lung = test system: DMS 273 small cell lung
SW-620 colon = test system: SW-620 colon
SF-539 CNS = test system: SF-539 CNS
SNB-78 CNS = test system: SNB-78 CNS
OVCAR-8 ovarian = test system: OVCAR-8 ovarian
KM20L2 colon = test system: KM20L2 colon
NCI-H23 lung = test system: NCI-H23 lung
K-562 leukemia = test system: K-562 leukemia
OVCAR-5 ovarian = test system: OVCAR-5 ovarian
UACC-257 melanoma = test system: UACC-257 melanoma
IGROV1 ovarian = test system: IGROV1 ovarian
HOP-62 NSCLC = test system: HOP-62 NSCLC
HCT-15 colon = test system: HCT-15 colon
KM12 colon = test system: KM12 colon
A498 renal = test system: A498 renal
SK-MEL-2 melanoma = test system: SK-MEL-2 melanoma
RPMI-8226 leukemia = test system: RPMI-8226 leukemia
U251 CNS = test system: U251 CNS
SK-MEL-5 melanoma = test system: SK-MEL-5 melanoma
CCRF-CEM leukemia = test system: CCRF-CEM leukemia
OVCAR-3 ovarian = test system: OVCAR-3 ovarian
DLD-1 colon = test system: DLD-1 colon
RXF 393 renal = test system: RXF 393 renal
M19-MEL melanoma = test system: M19-MEL melanoma
SNB-75 CNS = test system: SNB-75 CNS
LOX IMVI melanoma = test system: LOX IMVI melanoma
OVCAR-4 ovarian = test system: OVCAR-4 ovarian
MOLT-4 leukemia = test system: MOLT-4 leukemia
HL-60(TB) leukemia = test system: HL-60(TB) leukemia
NCI-H226 lung = test system: NCI-H226 lung
MALME-3M melanoma = test system: MALME-3M melanoma
DMS 114 small cell lung = test system: DMS 114 small cell lung
NCI/ADR-RES ovarian = test system: NCI/ADR-RES ovarian
COLO 205 colon = test system: COLO 205 colon
SK-OV-3 ovarian = test system: SK-OV-3 ovarian
P388 leukemia = test system: P388 leukemia
HCC-2998 colon = test system: HCC-2998 colon
SK-MEL-28 melanoma = test system: SK-MEL-28 melanoma
NCI-H460 lung = test system: NCI-H460 lung
NCI-H522 lung = test system: NCI-H522 lung
SN12C renal = test system: SN12C renal
HOP-92 NSCLC = test system: HOP-92 NSCLC
SF-295 CNS = test system: SF-295 CNS
SF-268 CNS = test system: SF-268 CNS
HCT-116 colon = test system: HCT-116 colon
MCF7 breast = test system: MCF7 breast
LXFL 529 NSCLC = test system: LXFL 529 NSCLC
ACHN renal = test system: ACHN renal
TK-10 renal = test system: TK-10 renal
UACC-62 melanoma = test system: UACC-62 melanoma
M14 melanoma = test system: M14 melanoma
SR leukemia = test system: SR leukemia
CAKI-1 renal = test system: CAKI-1 renal
786-0 renal = test system: 786-0 renal
RXF-631 renal = test system: RXF-631 renal
P388/ADR leukemia = test system: P388/ADR leukemia

## COc1cc(-c2ccc(N=Nc3c(S(=O)(=O)O)cc4cc(S(=O)(=O)O)cc(N)c4c3O)c(OC)c2)ccc1N=Nc1c(S(=O)(=O)O)cc2cc(S(=O)(=O)O)cc(N)c2c1O
XF 498 CNS
  TGI: > 67.9 µM
HT29 colon
  TGI: > 100 µM
SN12K1 renal
  TGI: > 100 µM
UO-31 renal
  TGI: > 100 µM
HOP-18 NSCLC
  TGI: > 100 µM
EKVX NSCLC
  TGI: > 100 µM
A549 NSCLC
  TGI: > 100 µM
SNB-19 CNS
  TGI: > 100 µM
DMS 273 small cell lung
  TGI: > 100 µM
SW-620 colon
  TGI: > 100 µM
SF-539 CNS
  TGI: > 100 µM
SNB-78 CNS
  TGI: > 100 µM
OVCAR-8 ovarian
  TGI: > 100 µM
KM20L2 colon
  TGI: > 100 µM
NCI-H23 lung
  TGI: > 100 µM
K-562 leukemia
  TGI: > 100 µM
OVCAR-5 ovarian
  TGI: > 100 µM
UACC-257 melanoma
  TGI: > 100 µM
IGROV1 ovarian
  TGI: > 100 µM
HOP-62 NSCLC
  TGI: > 100 µM
HCT-15 colon
  TGI: > 100 µM
KM12 colon
  TGI: > 100 µM
A498 renal
  TGI: > 100 µM
SK-MEL-2 melanoma
  TGI: > 100 µM
RPMI-8226 leukemia
  TGI: > 100 µM
U251 CNS
  TGI: > 100 µM
SK-MEL-5 melanoma
  TGI: > 100 µM
CCRF-CEM leukemia
  TGI: > 100 µM
OVCAR-3 ovarian
  TGI: > 100 µM
DLD-1 colon
  TGI: > 100 µM
RXF 393 renal
  TGI: > 100 µM
M19-MEL melanoma
  TGI: > 100 µM
SNB-75 CNS
  TGI: > 100 µM
LOX IMVI melanoma
  TGI: > 100 µM
OVCAR-4 ovarian
  TGI: > 100 µM
MOLT-4 leukemia
  TGI: > 100 µM
HL-60(TB) leukemia
  TGI: > 100 µM
NCI-H226 lung
  TGI: > 100 µM
MALME-3M melanoma
  TGI: > 100 µM
DMS 114 small cell lung
  TGI: > 100 µM
NCI/ADR-RES ovarian
  TGI: > 100 µM
COLO 205 colon
  TGI: > 100 µM
SK-OV-3 ovarian
  TGI: > 100 µM
P388 leukemia
  TGI: > 100 µM
HCC-2998 colon
  TGI: > 100 µM
SK-MEL-28 melanoma
  TGI: > 100 µM
NCI-H460 lung
  TGI: > 100 µM
NCI-H522 lung
  TGI: > 100 µM
SN12C renal
  TGI: > 100 µM
HOP-92 NSCLC
  TGI: > 77.4 µM
SF-295 CNS
  TGI: > 100 µM
SF-268 CNS
  TGI: > 100 µM
HCT-116 colon
  TGI: > 100 µM
MCF7 breast
  TGI: > 100 µM

## Brc1ccc2c(C3CN[C@@H](c4c[nH]c5cc(Br)ccc45)CN3)c[nH]c2c1 (some centres undefined)
XF 498 CNS
  TGI: 18.7 µM
HT29 colon
  TGI: 9.52 µM
UO-31 renal
  TGI: 18.1 µM
HOP-18 NSCLC
  TGI: 24.6 µM
EKVX NSCLC
  TGI: 21.9 µM
LXFL 529 NSCLC
  TGI: 6.86 µM
ACHN renal
  TGI: 12.6 µM
A549 NSCLC
  TGI: 9.02 µM
SNB-19 CNS
  TGI: 22.4 µM
DMS 273 small cell lung
  TGI: 5.13 µM
SW-620 colon
  TGI: 9.05 µM
SF-539 CNS
  TGI: 12.9 µM
SNB-78 CNS
  TGI: 22.7 µM
OVCAR-8 ovarian
  TGI: 15.9 µM
KM20L2 colon
  TGI: 4.96 µM
NCI-H23 lung
  TGI: 7.13 µM
K-562 leukemia
  TGI: 9.4 µM
OVCAR-5 ovarian
  TGI: 10.1 µM
UACC-257 melanoma
  TGI: 23.4 µM
IGROV1 ovarian
  TGI: 23.6 µM
HOP-62 NSCLC
  TGI: 16.2 µM
HCT-15 colon
  TGI: 13.6 µM
TK-10 renal
  TGI: 20.8 µM
KM12 colon
  TGI: 3.47 µM
A498 renal
  TGI: 9.36 µM
UACC-62 melanoma
  TGI: 17.5 µM
SK-MEL-2 melanoma
  TGI: 10.9 µM
RPMI-8226 leukemia
  TGI: 5.16 µM
U251 CNS
  TGI: 18.5 µM
SK-MEL-5 melanoma
  TGI: 14.3 µM
CCRF-CEM leukemia
  TGI: 11.7 µM
OVCAR-3 ovarian
  TGI: 19.7 µM
DLD-1 colon
  TGI: 12.8 µM
RXF 393 renal
  TGI: 4.41 µM
M14 melanoma
  TGI: 9.6 µM
M19-MEL melanoma
  TGI: 19.4 µM
SNB-75 CNS
  TGI: 31.7 µM
LOX IMVI melanoma
  TGI: 9.03 µM
OVCAR-4 ovarian
  TGI: 13.6 µM
SR leukemia
  TGI: 3.08 µM
CAKI-1 renal
  TGI: 25.9 µM
MOLT-4 leukemia
  TGI: 11 µM
HL-60(TB) leukemia
  TGI: 7.72 µM
NCI-H226 lung
  TGI: 7.96 µM
MALME-3M melanoma
  TGI: 26.5 µM
DMS 114 small cell lung
  TGI: 5.14 µM
COLO 205 colon
  TGI: 3.49 µM
SK-OV-3 ovarian
  TGI: 16.6 µM
HCC-2998 colon
  TGI: 5.43 µM
SK-MEL-28 melanoma
  TGI: 23.8 µM
NCI-H460 lung
  TGI: 3.85 µM
NCI-H522 lung
  TGI: 5.6 µM
SN12C renal
  TGI: 17.7 µM
786-0 renal
  TGI: 9.91 µM
RXF-631 renal
  TGI: 12.9 µM
HOP-92 NSCLC
  TGI: 9.29 µM
SF-295 CNS
  TGI: 12.4 µM
SF-268 CNS
  TGI: 19.1 µM
HCT-116 colon
  TGI: 3.55 µM

## CCCCc1[nH]ccc2c(C)c3nc4ccccc4c3cc12
HT29 colon
  TGI: 8.85 µM
SN12K1 renal
  TGI: 5.75 µM
UO-31 renal
  TGI: 10.9 µM
HOP-18 NSCLC
  TGI: 6.83 µM
EKVX NSCLC
  TGI: 13.6 µM
A549 NSCLC
  TGI: 14.1 µM
P388/ADR leukemia
  TGI: 7.29 µM
SNB-19 CNS
  TGI: 11.6 µM
DMS 273 small cell lung
  TGI: 2.4 µM
SW-620 colon
  TGI: 6.78 µM
SF-539 CNS
  TGI: 7.45 µM
SNB-78 CNS
  TGI: 21.3 µM
OVCAR-8 ovarian
  TGI: 9.49 µM
KM20L2 colon
  TGI: 10.8 µM
NCI-H23 lung
  TGI: 16 µM
K-562 leukemia
  TGI: 5.98 µM
OVCAR-5 ovarian
  TGI: 17.2 µM
UACC-257 melanoma
  TGI: 5.13 µM
IGROV1 ovarian
  TGI: 16.9 µM
HOP-62 NSCLC
  TGI: 14.5 µM
HCT-15 colon
  TGI: 8.49 µM
KM12 colon
  TGI: 12.7 µM
A498 renal
  TGI: 13.4 µM
UACC-62 melanoma
  TGI: 8.75 µM
SK-MEL-2 melanoma
  TGI: 11.4 µM
RPMI-8226 leukemia
  TGI: 6.77 µM
U251 CNS
  TGI: 12.8 µM
SK-MEL-5 melanoma
  TGI: 6.52 µM
CCRF-CEM leukemia
  TGI: 10.6 µM
OVCAR-3 ovarian
  TGI: 10.8 µM
DLD-1 colon
  TGI: 13.3 µM
RXF 393 renal
  TGI: 7.61 µM
M19-MEL melanoma
  TGI: 10.9 µM
SNB-75 CNS
  TGI: 15.8 µM
LOX IMVI melanoma
  TGI: 4.3 µM
OVCAR-4 ovarian
  TGI: 13.5 µM
CAKI-1 renal
  TGI: 6.33 µM
MOLT-4 leukemia
  TGI: 4.72 µM
HL-60(TB) leukemia
  TGI: 3.45 µM
NCI-H226 lung
  TGI: 24.6 µM
MALME-3M melanoma
  TGI: 14.5 µM
DMS 114 small cell lung
  TGI: 4.14 µM
NCI/ADR-RES ovarian
  TGI: 5.87 µM
COLO 205 colon
  TGI: 3.39 µM
SK-OV-3 ovarian
  TGI: 16.8 µM
P388 leukemia
  TGI: 4.13 µM
HCC-2998 colon
  TGI: 8.19 µM
SK-MEL-28 melanoma
  TGI: 11.8 µM
NCI-H460 lung
  TGI: 5.03 µM
NCI-H522 lung
  TGI: 6.75 µM
SN12C renal
  TGI: 19.4 µM
HOP-92 NSCLC
  TGI: 12.4 µM
SF-295 CNS
  TGI: 8.41 µM
SF-268 CNS
  TGI: 21.6 µM
HCT-116 colon
  TGI: 4.76 µM
MCF7 breast
  TGI: 10.8 µM
